For 22 compounds, IC50 results are on record in patent US9296757B2, “Substituted benzothienopyrimidines” (BAYER PHARMA AKTIENGESELLSCHAFT, priority 2012, dated 2016).

Usually IC50 stands for the point on the concentration scale where inhibition reaches its midpoint.

human full-length MKNK1, sequence (Q9BUB5 other isoform, or with tags, fused parts or gaps T344D): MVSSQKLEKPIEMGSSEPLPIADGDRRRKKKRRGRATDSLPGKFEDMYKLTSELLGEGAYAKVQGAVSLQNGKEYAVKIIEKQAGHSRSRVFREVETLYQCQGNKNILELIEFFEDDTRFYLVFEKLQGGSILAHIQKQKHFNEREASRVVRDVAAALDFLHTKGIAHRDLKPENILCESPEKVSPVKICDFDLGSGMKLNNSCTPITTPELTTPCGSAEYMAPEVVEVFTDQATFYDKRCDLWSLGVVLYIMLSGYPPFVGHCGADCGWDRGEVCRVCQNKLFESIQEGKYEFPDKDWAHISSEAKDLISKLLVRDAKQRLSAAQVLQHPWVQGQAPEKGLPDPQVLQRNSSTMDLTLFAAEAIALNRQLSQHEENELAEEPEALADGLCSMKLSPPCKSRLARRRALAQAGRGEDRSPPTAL

This test concerns the target human full-length MKNK1 (Homo sapiens (Human), UniProt Q9BUB5, T344D). Put plainly: MKNK1 kinase high ATP assay (TR-FRET). It counts as biochemical. The following applies: high ATP (2 mM final), 15 min preincubation with enzyme. Here is the method:
MKNK1-inhibitory activity at high ATP of compounds of the present invention after their preincubation with MKNK1 was quantified employing the TR-FRET-based MKNK1 high ATP assay as described in the following paragraphs.
A recombinant fusion protein of Glutathione-S-Transferase (GST, N-terminally) and human full-length MKNK1 (amino acids 1-424 and T344D of accession number BAA 19885.1), expressed in insect cells using baculovirus expression system and purified via glutathione sepharose affinity chromatography, was purchased from Carna Biosciences (product no 02-145) and used as enzyme. As substrate for the kinase reaction the biotinylated peptide biotin-Ahx-IKKRKLTRRKSLKG (C-terminus in amide form) was used, which can be purchased e.g. from the company Biosyntan (Berlin-Buch, Germany).
For the assay 50 nL of a 100 fold concentrated solution of the test compound in DMSO was pipetted into a black low volume 384 well microtiter plate (Greiner Bio-One, Frickenhausen, Germany), 2 μL of a solution of MKNK1 in aqueous assay buffer [50 mM HEPES pH 7.5, 5 mM MgCl2, 1.0 mM dithiothreitol, 0.005% (v/v) Nonidet-P40 (Sigma)] was added and the mixture was incubated for 15 min at 22° C. to allow pre-binding of the test compounds to the enzyme before the start of the kinase reaction. Then the kinase reaction was started by the addition of 3 μL of a solution of adenosine-tri-phosphate (ATP, 3.3 mM=>final conc. in the 5 μL assay volume is 2 mM) and substrate (0.1 μM=>final conc. in the 5 μL assay volume is 0.06 μM) in assay buffer and the resulting mixture was incubated for a reaction time of 30 min at 22° C. The concentration of MKNK1 was adjusted depending of the activity of the enzyme lot and was chosen appropriate to have the assay in the linear range, typical concentrations were in the range of 0.003 μg/mL. The reaction was stopped by the addition of 5 μL of a solution of TR-FRET detection reagents (5 nM streptavidine-XL665 [Cisbio Bioassays, Codolet, France] and 1 nM anti-ribosomal protein S6 (pSer236)-antibody from Invitrogen [#44921G] and 1 nM LANCE EU-W1024 labeled ProteinG [Perkin-Elmer, product no. AD0071]) in an aqueous EDTA-solution (100 mM EDTA, 0.1% (w/v) bovine serum albumin in 50 mM HEPES pH 7.5).
The resulting mixture was incubated for 1 h at 22° C. to allow the formation of complex between the phosphorylated biotinylated peptide and the detection reagents. Subsequently the amount of phosphorylated substrate was evaluated by measurement of the resonance energy transfer from the Eu-chelate to the streptavidine-XL. Therefore, the fluorescence emissions at 620 nm and 665 nm after excitation at 350 nm were measured in a TR-FRET reader, e.g. a Rubystar (BMG Labtechnologies, Offenburg, Germany) or a Viewlux (Perkin-Elmer). The ratio of the emissions at 665 nm and at […] was taken as the measure for the amount of phosphorylated substrate. The data were normalised (enzyme reaction without inhibitor=0% inhibition, all other assay components but no enzyme=100% inhibition).
The compound `O=c1[nH]c2ccc(Nc3ncnc4sc5c(c34)CCC(CO)C5)cc2s1` (racemic) [Example 18, (RS)-6-{[7-(Hydroxymethyl)-5,6,7,8-tetrahydro[1]benzothieno[2,3-d]pyrimidin-4-yl]amino}-1,3-benzothiazol-2(3H)-one] registered an IC50 of 0.06 µM.

For `[N-]=[N+]=NCC1CCc2c(sc3ncnc(Nc4ccc5[nH]c(=O)sc5c4)c23)C1` (racemic) [Example 19, (RS)-6-{[7-(Azidomethyl)-5,6,7,8-tetrahydro[1]benzothieno[2,3-d]pyrimidin-4-yl]amino}-1,3-benzothiazol-2(3H)-one], the IC50 turned out to be 0.093 µM.

Take `NCC1CCc2c(sc3ncnc(Nc4ccc5[nH]c(=O)sc5c4)c23)C1` (racemic) [Example 20, (RS)-6-{[7-(Aminomethyl)-5,6,7,8-tetrahydro[1]benzothieno[2,3-d]pyrimidin-4-yl]amino}-1,3-benzothiazol-2(3H)-one]: the IC50 was determined as 0.103 µM.

`CC(C)C(=O)NCC1CCc2c(sc3ncnc(Nc4ccc5[nH]c(=O)sc5c4)c23)C1` (racemic) [Example 21, (RS)-2-Methyl-N-({4-[(2-oxo-2,3-dihydro-1,3-benzothiazol-6-yl)amino]-5,6,7,8-tetrahydro[1]benzothieno[2,3-d]pyrimidin-7-yl}methyl)propanamide] registered an IC50 of 0.037 µM.

Turning to `CC(C)NC(=O)NCC1CCc2c(sc3ncnc(Nc4ccc5[nH]c(=O)sc5c4)c23)C1` (racemic) [Example 22, (RS)-1-({4-[(2-Oxo-2,3-dihydro-1,3-benzothiazol-6-yl)amino]-5,6,7,8-tetrahydro[1]benzothieno[2,3-d]pyrimidin-7-yl}methyl)-3-propan-2-ylurea], the IC50 was 0.059 µM.

`CC(C)OC(=O)NCC1CCc2c(sc3ncnc(Nc4ccc5[nH]c(=O)sc5c4)c23)C1` (racemic) [Example 24, (RS)-Propan-2-yl ({4-[(2-oxo-2,3-dihydro-1,3-benzothiazol-6-yl)amino]-5,6,7,8-tetrahydro[1]benzothieno[2,3-d]pyrimidin-7-yl}methyl)carbamate] yielded an IC50 of 0.062 µM.

For `CC(C)(O)C(=O)NCC1CCc2c(sc3ncnc(Nc4ccc5[nH]c(=O)sc5c4)c23)C1` (racemic) [Example 25, (RS)-2-Hydroxy-2-methyl-N-({4-[(2-oxo-2,3-dihydro-1,3-benzothiazol-6-yl)amino]-5,6,7,8-tetrahydro[1]benzothieno[2,3-d]pyrimidin-7-yl}methyl)propanamide], the IC50 was determined as 0.042 µM.

`CC(O)C(=O)NCC1CCc2c(sc3ncnc(Nc4ccc5[nH]c(=O)sc5c4)c23)C1` (racemic) [Example 26, (2RS)-2-Hydroxy-N-({(7RS)-4-[(2-oxo-2,3-dihydro-1,3-benzothiazol-6-yl)amino]-5,6,7,8-tetrahydro[1]benzothieno[2,3-d]pyrimidin-7-yl}methyl)propanamide] gave an IC50 of 0.084 µM.

With `CC(C)S(=O)(=O)NCC1CCc2c(sc3ncnc(Nc4ccc5[nH]c(=O)sc5c4)c23)C1` (racemic) [Example 28, (RS)—N-({4-[(2-Oxo-2,3-dihydro-1,3-benzothiazol-6-yl)amino]-5,6,7,8-tetrahydro[1]benzothieno[2,3-d]pyrimidin-7-yl}methyl)propane-2-sulfonamide], half-maximal inhibition (IC50) was put at 0.139 µM.

`CN1CCN(C(=O)C2CCc3c(sc4ncnc(Nc5ccc6[nH]c(=O)sc6c5)c34)C2)CC1` (racemic) [Example 29, (RS)-6-({7-[(4-Methylpiperazin-1-yl)carbonyl]-5,6,7,8-tetrahydro[1]benzothieno[2,3-d]pyrimidin-4-yl}amino)-1,3-benzothiazol-2(3H)-one] had an IC50 of 0.048 µM. This IC50 is about 2.9-fold lower than that of the compound before.

As for `CCOC(=O)C1CCc2c(sc3ncnc(Nc4cc5sc(=O)[nH]c5cc4OC)c23)C1` (racemic) [Example 30, (RS)-Ethyl 4-[(5-methoxy-2-oxo-2,3-dihydro-1,3-benzothiazol-6-yl)amino]-5,6,7,8-tetrahydro[1]benzothieno[2,3-d]pyrimidine-7-carboxylate], half-maximal inhibition (IC50) was put at 0.015 µM.

Take `COc1cc2[nH]c(=O)sc2cc1Nc1ncnc2sc3c(c12)CCC(C(=O)NC(C)C)C3` (racemic) [Example 31]: the IC50 came out at 0.004 µM.

In turn, `CCCCN(CC#N)C(=O)C1CCc2c(sc3ncnc(Nc4ccc5[nH]c(=O)sc5c4)c23)C1` (racemic) [Example 34, (RS)-N-butyl-N-(cyanonmethyl)-4-[(2-oxo-2,3-dihydro-1,3-benzothiazol-6-yl)amino]-5,6,7,8-tetrahydro[1]benzothieno[2,3-d]pyrimidine-7-carboxamide] came in with an IC50 of 0.02 µM.

In turn, `CN(C)CCN(C)C(=O)C1CCc2c(sc3ncnc(Nc4ccc5[nH]c(=O)sc5c4)c23)C1` (racemic) [Example 35, (RS)-N-[2-(dimethylamino)ethyl]-N-methyl-4-[(2-oxo-2,3-dihydro-1,3-benzothiazol-6-yl)amino]-5,6,7,8-tetrahydro[1]benzothieno[2,3-d]pyrimidine-7-carboxamide] yielded an IC50 of 0.036 µM.

`CN(C)CCN(Cc1ccccc1)C(=O)C1CCc2c(sc3ncnc(Nc4ccc5[nH]c(=O)sc5c4)c23)C1` (racemic) [Example 36, (RS)-N-benzyl-N-[2-(dimethylamino)ethyl]-4-[(2-oxo-2,3-dihydro-1,3-benzothiazol-6-yl)amino]-5,6,7,8-tetrahydro[1]benzothieno[2,3-d]pyrimidine-7-carboxamide] gave an IC50 of 0.009 µM.

On to `CN1CCN(C(=O)C2CCc3c(sc4ncnc(Nc5ccc6[nH]c(=O)sc6c5)c34)C2)CC1` (racemic) [Example 37, (RS)-6-({7-[(4-methylpiperazin-1-yl)carbonyl]-5,6,7,8-tetrahydro[1]benzothieno[2,3-d]pyrimidin-4-yl}amino)-1,3-benzothiazol-2(3H)-one], for which the IC50 is 0.022 µM.

In the case of `O=C(C1CCc2c(sc3ncnc(Nc4ccc5[nH]c(=O)sc5c4)c23)C1)N1CCN(c2ccccn2)CC1` (racemic) [Example 40, (RS)-6-[(7-{[4-(pyridin-2-yl)piperazin-1-yl]carbonyl}-5,6,7,8-tetrahydro[1]benzothieno[2,3-d]pyrimidin-4-yl)amino]-1,3-benzothiazol-2(3H)-one], the IC50 is 0.065 µM. Against the preceding compound, the IC50 is about 3-fold higher.

In turn, `CCCCN(C)C(=O)C1CCc2c(sc3ncnc(Nc4ccc5[nH]c(=O)sc5c4)c23)C1` (racemic) [Example 41, (RS)-N-butyl-N-methyl-4-[(2-oxo-2,3-dihydro-1,3-benzothiazol-6-yl)amino]-5,6,7,8-tetrahydro[1]benzothieno[2,3-d]pyrimidine-7-carboxamide] showed an IC50 of 0.021 µM.

In the case of `COc1ccc(N(C)C(=O)C2CCc3c(sc4ncnc(Nc5ccc6[nH]c(=O)sc6c5)c34)C2)cc1` (racemic) [Example 42, (RS)-N-(4-methoxyphenyl)-N-methyl-4-[(2-oxo-2,3-dihydro-1,3-benzothiazol-6-yl)amino]-5,6,7,8-tetrahydro[1]benzothieno[2,3-d]pyrimidine-7-carboxamide], the midpoint of inhibition, the IC50, lay at 0.047 µM.

The compound `O=C(CN1CCN(C(=O)C2CCc3c(sc4ncnc(Nc5ccc6[nH]c(=O)sc6c5)c34)C2)CC1)N1CCCC1` (racemic) [Example 43, (RS)-6-{[7-({4-[2-oxo-2-(pyrrolidin-1-yl)ethyl]piperazin-1-yl}carbonyl)-5,6,7,8-tetrahydro[1]benzothieno[2,3-d]pyrimidin-4-yl]amino}-1,3-benzothiazol-2(3H)-one] had an IC50 of 0.069 µM. This IC50 and that of the compound before are within 1.5-fold of each other.

As to `O=C(C1CCc2c(sc3ncnc(Nc4ccc5[nH]c(=O)sc5c4)c23)C1)N1CCN(Cc2ccc3c(c2)OCO3)CC1` (racemic) [Example 44, (RS)-6-[(7-{[4-(1,3-benzodioxol-5-ylmethyl)piperazin-1-yl]carbonyl}-5,6,7,8-tetrahydro[1]benzothieno[2,3-d]pyrimidin-4-yl)amino]-1,3-benzothiazol-2(3H)-one], inhibition was half-maximal at 0.067 µM (IC50).

For `O=C(C1CCc2c(sc3ncnc(Nc4ccc5[nH]c(=O)sc5c4)c23)C1)N1CCC1` (racemic) [Example 45, (RS)-6-{[7-(azetidin-1-ylcarbonyl)-5,6,7,8-tetrahydro[1]benzothieno[2,3-d]pyrimidin-4-yl]amino}-1,3-benzothiazol-2(3H)-one], the IC50 worked out at 0.07 µM. This IC50 and that of the compound before are within 1.5-fold of each other.
